One assay deals with ERK. Also noted: method as in earlier work. Particulars: Table S1; cited from earlier work.
Assay [1] addresses T1, PAK1 (Homo sapiens, UniProt Q13153). More on the design: method as in earlier work. As to conditions: Table S1; cited from earlier work.
The target of a further assay is T2, TRPM6 (Homo sapiens, UniProt Q9BX84).
T2 construct: purchased DiscoveRx KINOMEscan (Ambit Biosciences)
Briefly: KINOMEscan panel screen. It counts as binding. As to conditions: read-out: Percent Control(%).

Another assay deals with T3, NEK5 (Homo sapiens, UniProt Q6P3R8).
T3 construct: purchased DiscoveRx KINOMEscan (Ambit Biosciences)
In words: KINOMEscan panel screen. In kind it is binding. As to conditions: read-out: Percent Control(%).

Assay [2] concerns the target T4, ABL1(Q252H)-nonphosphorylated (Homo sapiens, UniProt P00519, Q252H).
T4 construct: purchased DiscoveRx KINOMEscan (Ambit Biosciences)
Briefly: KINOMEscan panel screen. In kind it is binding. As to conditions: read-out: Percent Control(%).

Another assay concerns the target T5, NEK1 (Homo sapiens, UniProt Q96PY6).
T5 construct: purchased DiscoveRx KINOMEscan (Ambit Biosciences)
Briefly: KINOMEscan panel screen. As to conditions: read-out: Percent Control(%). It counts as binding.

In a further assay the target is T6, TNIK (Homo sapiens, UniProt Q9UKE5).
T6 construct: purchased DiscoveRx KINOMEscan (Ambit Biosciences)
In words: KINOMEscan panel screen. It counts as binding. As to conditions: read-out: Percent Control(%).

Another assay concerns the target T7, BIKE (Homo sapiens, UniProt Q9NSY1).
T7 construct: purchased DiscoveRx KINOMEscan (Ambit Biosciences)
In words: KINOMEscan panel screen. It counts as binding. Particulars: read-out: Percent Control(%).

Another assay has as its target T8, YSK1 (Homo sapiens, UniProt O00506).
T8 construct: purchased DiscoveRx KINOMEscan (Ambit Biosciences)
Briefly: KINOMEscan panel screen. As to conditions: read-out: Percent Control(%). It counts as binding.

A further assay concerns the target T9, OSR1 (Homo sapiens, UniProt O95747).
T9 construct: purchased DiscoveRx KINOMEscan (Ambit Biosciences)
In words: KINOMEscan panel screen. It counts as binding. Particulars: read-out: Percent Control(%).

The next assay addresses T10, ERK3 (Homo sapiens, UniProt Q16659).
T10 construct: purchased DiscoveRx KINOMEscan (Ambit Biosciences)
Briefly: KINOMEscan panel screen. As to conditions: read-out: Percent Control(%). In kind it is binding.

In a further assay the target is T11, ULK1 (Homo sapiens, UniProt O75385).
T11 construct: purchased DiscoveRx KINOMEscan (Ambit Biosciences)
In words: KINOMEscan panel screen. Particulars: read-out: Percent Control(%). It counts as binding.

For another assay, the target named is T12, TRKB (Homo sapiens, UniProt Q16620).
T12 construct: purchased DiscoveRx KINOMEscan (Ambit Biosciences)
In words: KINOMEscan panel screen. In kind it is binding. As to conditions: read-out: Percent Control(%).

For another assay, the target named is T13, VEGFR2 (Homo sapiens, UniProt P35968).
T13 construct: DNA tag (qPCR read-out); purchased Ambit Biosciences (KINOMEscan service)
T13 sequence (P35968 20-1356): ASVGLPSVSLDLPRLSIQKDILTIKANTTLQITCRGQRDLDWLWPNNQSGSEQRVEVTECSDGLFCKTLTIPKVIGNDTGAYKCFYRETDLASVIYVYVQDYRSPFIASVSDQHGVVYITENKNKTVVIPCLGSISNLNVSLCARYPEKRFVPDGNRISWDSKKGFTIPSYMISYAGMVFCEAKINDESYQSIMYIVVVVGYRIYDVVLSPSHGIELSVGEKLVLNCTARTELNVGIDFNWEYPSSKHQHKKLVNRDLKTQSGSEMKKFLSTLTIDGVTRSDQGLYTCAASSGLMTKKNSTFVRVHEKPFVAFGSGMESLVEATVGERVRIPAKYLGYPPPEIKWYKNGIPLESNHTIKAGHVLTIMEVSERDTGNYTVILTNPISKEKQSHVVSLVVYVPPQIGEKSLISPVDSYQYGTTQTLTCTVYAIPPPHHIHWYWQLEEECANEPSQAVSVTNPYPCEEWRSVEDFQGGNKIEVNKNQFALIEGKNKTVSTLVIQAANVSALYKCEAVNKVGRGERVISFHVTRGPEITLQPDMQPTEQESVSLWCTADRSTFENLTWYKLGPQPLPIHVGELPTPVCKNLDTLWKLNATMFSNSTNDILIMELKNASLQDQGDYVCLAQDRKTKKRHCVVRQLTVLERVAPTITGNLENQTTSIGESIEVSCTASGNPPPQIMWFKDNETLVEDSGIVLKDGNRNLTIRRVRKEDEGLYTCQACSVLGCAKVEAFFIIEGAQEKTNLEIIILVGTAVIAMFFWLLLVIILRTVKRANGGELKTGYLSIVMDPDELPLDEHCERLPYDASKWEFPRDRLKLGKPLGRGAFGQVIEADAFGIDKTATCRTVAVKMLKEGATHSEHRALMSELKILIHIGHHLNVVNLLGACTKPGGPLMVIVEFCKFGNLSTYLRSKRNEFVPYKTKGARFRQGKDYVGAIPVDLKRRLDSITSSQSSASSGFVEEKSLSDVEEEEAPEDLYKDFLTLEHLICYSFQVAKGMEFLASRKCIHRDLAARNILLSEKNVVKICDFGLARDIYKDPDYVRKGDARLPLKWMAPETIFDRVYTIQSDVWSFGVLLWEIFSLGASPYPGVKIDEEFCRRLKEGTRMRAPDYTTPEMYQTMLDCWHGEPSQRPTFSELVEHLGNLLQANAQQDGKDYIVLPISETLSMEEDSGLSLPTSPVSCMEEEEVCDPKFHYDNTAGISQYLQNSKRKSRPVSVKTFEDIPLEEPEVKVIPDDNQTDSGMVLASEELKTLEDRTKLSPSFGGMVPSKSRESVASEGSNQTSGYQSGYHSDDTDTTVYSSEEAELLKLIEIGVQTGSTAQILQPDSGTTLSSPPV
In words: KINOMEscan panel screen. It counts as binding. As to conditions: read-out: Percent Control(%).

Assay [3] addresses T1, PAK1. In words: KINOMEscan panel screen. In kind it is binding. As to conditions: read-out: Percent Control(%).
Another assay concerns the target T14, PRKCE (Homo sapiens, UniProt Q02156).
T14 construct: purchased DiscoveRx KINOMEscan (Ambit Biosciences)
In words: KINOMEscan panel screen. In kind it is binding. As to conditions: read-out: Percent Control(%).

For the next assay, the target named is T15, MYO3A (Homo sapiens, UniProt Q8NEV4).
T15 construct: purchased DiscoveRx KINOMEscan (Ambit Biosciences)
In words: KINOMEscan panel screen. Particulars: read-out: Percent Control(%). It counts as binding.

Assay [4] concerns the target T16, ABL1(F317I)-nonphosphorylated (Homo sapiens, UniProt P00519, F317I).
T16 construct: purchased DiscoveRx KINOMEscan (Ambit Biosciences)
Briefly: KINOMEscan panel screen. It counts as binding. Particulars: read-out: Percent Control(%).

A further assay concerns the target T17, EGFR(S752-I759del) (Homo sapiens, UniProt P00533, DEL752-759).
T17 construct: purchased DiscoveRx KINOMEscan (Ambit Biosciences)
In words: KINOMEscan panel screen. In kind it is binding. Particulars: read-out: Percent Control(%).

The target in the next assay is T18, TESK1 (Homo sapiens, UniProt Q15569).
T18 construct: purchased DiscoveRx KINOMEscan (Ambit Biosciences)
Briefly: KINOMEscan panel screen. In kind it is binding. Particulars: read-out: Percent Control(%).

In another assay the target is T19, PHKG1 (Homo sapiens, UniProt Q16816).
T19 construct: purchased DiscoveRx KINOMEscan (Ambit Biosciences)
Briefly: KINOMEscan panel screen. In kind it is binding. As to conditions: read-out: Percent Control(%).

Assay [5] addresses T20, ABL1(H396P)-phosphorylated (Homo sapiens, UniProt P00519, H396P).
T20 construct: purchased DiscoveRx KINOMEscan (Ambit Biosciences)
In words: KINOMEscan panel screen. It counts as binding. Particulars: read-out: Percent Control(%).

Another assay concerns the target T21, TSSK1B (Homo sapiens, UniProt Q9BXA7).
T21 construct: purchased DiscoveRx KINOMEscan (Ambit Biosciences)
Briefly: KINOMEscan panel screen. In kind it is binding. Particulars: read-out: Percent Control(%).

In a further assay the target is T22, TAK1 (Homo sapiens, UniProt O43318).
T22 construct: purchased DiscoveRx KINOMEscan (Ambit Biosciences)
Briefly: KINOMEscan panel screen. As to conditions: read-out: Percent Control(%). It counts as binding.

The target in another assay is ERBB2 (Homo sapiens, UniProt P04626). In words: KINOMEscan panel screen. It counts as binding. As to conditions: read-out: Percent Control(%).
A further assay concerns the target T23, PHKG2 (Homo sapiens, UniProt P15735).
T23 construct: purchased DiscoveRx KINOMEscan (Ambit Biosciences)
In words: KINOMEscan panel screen. As to conditions: read-out: Percent Control(%). It counts as binding.

The target of the next assay is T24, CAMK2B (Homo sapiens, UniProt Q13554).
T24 construct: purchased DiscoveRx KINOMEscan (Ambit Biosciences)
T24 sequence (Q13554 whole entry): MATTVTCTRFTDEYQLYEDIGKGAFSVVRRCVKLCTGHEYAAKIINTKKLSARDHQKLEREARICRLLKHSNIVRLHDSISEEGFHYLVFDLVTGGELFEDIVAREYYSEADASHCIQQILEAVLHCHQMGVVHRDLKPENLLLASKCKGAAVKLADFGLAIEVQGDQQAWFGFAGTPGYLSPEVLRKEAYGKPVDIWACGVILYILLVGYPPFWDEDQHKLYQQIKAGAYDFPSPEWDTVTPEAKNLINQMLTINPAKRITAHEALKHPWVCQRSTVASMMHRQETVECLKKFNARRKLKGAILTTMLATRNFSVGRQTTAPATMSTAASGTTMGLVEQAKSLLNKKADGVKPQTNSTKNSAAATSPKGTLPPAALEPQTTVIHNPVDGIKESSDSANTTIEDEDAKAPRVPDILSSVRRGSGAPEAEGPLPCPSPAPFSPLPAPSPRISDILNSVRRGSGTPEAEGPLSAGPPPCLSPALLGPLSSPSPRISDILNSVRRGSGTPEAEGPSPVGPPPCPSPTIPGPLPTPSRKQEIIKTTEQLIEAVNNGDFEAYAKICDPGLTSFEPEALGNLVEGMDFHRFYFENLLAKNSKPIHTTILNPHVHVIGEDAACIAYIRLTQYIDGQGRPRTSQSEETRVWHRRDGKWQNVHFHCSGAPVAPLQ
In words: KINOMEscan panel screen. Particulars: read-out: Percent Control(%). In kind it is binding.

The next assay deals with T25, MAP3K1 (Homo sapiens, UniProt Q13233).
T25 construct: purchased DiscoveRx KINOMEscan (Ambit Biosciences)
Briefly: KINOMEscan panel screen. Particulars: read-out: Percent Control(%). In kind it is binding.

For the next assay, the target named is T26, FRK (Homo sapiens, UniProt P42685).
T26 construct: purchased DiscoveRx KINOMEscan (Ambit Biosciences)
T26 sequence (P42685 whole entry): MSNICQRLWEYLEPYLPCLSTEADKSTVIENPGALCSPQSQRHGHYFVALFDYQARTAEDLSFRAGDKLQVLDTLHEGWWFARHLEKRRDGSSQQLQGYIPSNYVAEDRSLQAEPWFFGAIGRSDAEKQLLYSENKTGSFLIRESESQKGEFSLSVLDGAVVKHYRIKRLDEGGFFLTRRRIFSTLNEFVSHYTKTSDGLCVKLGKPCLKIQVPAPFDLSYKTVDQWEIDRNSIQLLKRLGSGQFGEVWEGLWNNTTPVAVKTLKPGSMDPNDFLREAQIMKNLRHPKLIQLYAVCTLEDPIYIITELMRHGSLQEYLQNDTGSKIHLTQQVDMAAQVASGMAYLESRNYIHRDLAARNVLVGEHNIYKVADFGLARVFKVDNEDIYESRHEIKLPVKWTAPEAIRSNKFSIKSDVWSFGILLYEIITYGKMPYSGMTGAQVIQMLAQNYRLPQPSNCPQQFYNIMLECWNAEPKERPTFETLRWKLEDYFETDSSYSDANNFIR
Briefly: KINOMEscan panel screen. As to conditions: read-out: Percent Control(%). In kind it is binding.

A further assay concerns the target T27, DCLK1 (Homo sapiens, UniProt O15075).
T27 construct: purchased Ambit Biosciences (KINOMEscan)
In words: KINOMEscan kinase binding assay (Kd).

The target of another assay is T28, MYLK4 (Homo sapiens, UniProt Q86YV6).
T28 construct: purchased DiscoveRx KINOMEscan (Ambit Biosciences)
Briefly: KINOMEscan panel screen. In kind it is binding. As to conditions: read-out: Percent Control(%).

A further assay deals with T29, CDK9 (Homo sapiens, UniProt P50750).
T29 construct: purchased DiscoveRx KINOMEscan (Ambit Biosciences)
In words: KINOMEscan panel screen. It counts as binding. As to conditions: read-out: Percent Control(%).

A further assay addresses T30, PRKCH (Homo sapiens, UniProt P24723).
T30 construct: purchased DiscoveRx KINOMEscan (Ambit Biosciences)
In words: KINOMEscan panel screen. In kind it is binding. As to conditions: read-out: Percent Control(%).

A further assay deals with T31, PAK7 (Homo sapiens, UniProt Q9P286).
T31 construct: purchased DiscoveRx KINOMEscan (Ambit Biosciences)
Briefly: KINOMEscan panel screen. Particulars: read-out: Percent Control(%). It counts as binding.

The next assay deals with T32, ABL2 (Homo sapiens, UniProt P42684).
T32 construct: purchased DiscoveRx KINOMEscan (Ambit Biosciences)
In words: KINOMEscan panel screen. In kind it is binding. As to conditions: read-out: Percent Control(%).

The target of another assay is T33, AXL (Homo sapiens, UniProt P30530).
T33 construct: purchased DiscoveRx KINOMEscan (Ambit Biosciences)
Briefly: KINOMEscan panel screen. It counts as binding. Particulars: read-out: Percent Control(%).

A further assay has as its target T34, TLK1 (Homo sapiens, UniProt Q9UKI8).
T34 construct: purchased DiscoveRx KINOMEscan (Ambit Biosciences)
In words: KINOMEscan panel screen. In kind it is binding. As to conditions: read-out: Percent Control(%).

Assay [6] has as its target T35, ABL1(E255K)-phosphorylated (Homo sapiens, UniProt P00519, E255K).
T35 construct: purchased DiscoveRx KINOMEscan (Ambit Biosciences)
Briefly: KINOMEscan panel screen. In kind it is binding. As to conditions: read-out: Percent Control(%).

In the next assay the target is T36, TIE2 (Homo sapiens, UniProt Q02763).
T36 construct: purchased DiscoveRx KINOMEscan (Ambit Biosciences)
In words: KINOMEscan kinase binding assay (Kd).

The target of the next assay is T37, ICK (Homo sapiens, UniProt Q9UPZ9).
T37 construct: purchased DiscoveRx KINOMEscan (Ambit Biosciences)
T37 sequence (Q9UPZ9 whole entry): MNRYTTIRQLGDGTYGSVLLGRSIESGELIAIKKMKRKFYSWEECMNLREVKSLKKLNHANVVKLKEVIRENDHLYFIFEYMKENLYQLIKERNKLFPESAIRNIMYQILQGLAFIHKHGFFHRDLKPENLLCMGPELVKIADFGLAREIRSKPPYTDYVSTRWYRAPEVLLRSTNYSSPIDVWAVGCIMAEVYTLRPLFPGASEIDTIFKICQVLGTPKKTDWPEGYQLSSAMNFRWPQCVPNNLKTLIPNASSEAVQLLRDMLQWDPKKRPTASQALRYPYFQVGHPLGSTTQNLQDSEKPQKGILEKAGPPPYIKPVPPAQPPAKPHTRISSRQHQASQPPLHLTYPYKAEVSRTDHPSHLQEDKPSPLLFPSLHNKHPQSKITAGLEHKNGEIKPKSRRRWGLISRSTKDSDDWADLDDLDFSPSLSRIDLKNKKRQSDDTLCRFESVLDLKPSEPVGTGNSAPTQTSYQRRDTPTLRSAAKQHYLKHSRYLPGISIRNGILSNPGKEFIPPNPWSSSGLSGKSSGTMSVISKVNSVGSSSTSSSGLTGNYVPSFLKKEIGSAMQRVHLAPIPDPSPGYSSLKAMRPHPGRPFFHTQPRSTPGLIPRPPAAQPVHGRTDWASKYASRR
Briefly: KINOMEscan panel screen. In kind it is binding. Particulars: read-out: Percent Control(%).

Assay [7] has as its target T38, ABL1(F317L)-phosphorylated (Homo sapiens, UniProt P00519, F317L).
T38 construct: purchased DiscoveRx KINOMEscan (Ambit Biosciences)
In words: KINOMEscan panel screen. It counts as binding. Particulars: read-out: Percent Control(%).

Assay [8] has as its system phosphorylation of FLT3, STAT5 and Erk1/2 in MV4-11 cells. Briefly: Western blot of FLT3 signaling in MV4-11 cells. In kind it is cell-based, human. Particulars: 1 h treatment. For orientation: In western blotting, separated proteins are transferred to a membrane and probed.
Procedure: Western blot analysis was performed as previously described[43]. […] Quantitative analysis of the protein level was performed with NIH image analysis software, ImageJ (normalized relative to the vehicle control).
The phosphorylation levels of FLT3 and downstream signal proteins were detected used the same method as that in panel a.

As usually defined, the IC50 is the concentration needed to halve the response being measured. Usually Kd stands for the constant that tells how readily two partners part at equilibrium.

Bounds are passed on as bounds.

T1 sequence (Q13153 whole entry): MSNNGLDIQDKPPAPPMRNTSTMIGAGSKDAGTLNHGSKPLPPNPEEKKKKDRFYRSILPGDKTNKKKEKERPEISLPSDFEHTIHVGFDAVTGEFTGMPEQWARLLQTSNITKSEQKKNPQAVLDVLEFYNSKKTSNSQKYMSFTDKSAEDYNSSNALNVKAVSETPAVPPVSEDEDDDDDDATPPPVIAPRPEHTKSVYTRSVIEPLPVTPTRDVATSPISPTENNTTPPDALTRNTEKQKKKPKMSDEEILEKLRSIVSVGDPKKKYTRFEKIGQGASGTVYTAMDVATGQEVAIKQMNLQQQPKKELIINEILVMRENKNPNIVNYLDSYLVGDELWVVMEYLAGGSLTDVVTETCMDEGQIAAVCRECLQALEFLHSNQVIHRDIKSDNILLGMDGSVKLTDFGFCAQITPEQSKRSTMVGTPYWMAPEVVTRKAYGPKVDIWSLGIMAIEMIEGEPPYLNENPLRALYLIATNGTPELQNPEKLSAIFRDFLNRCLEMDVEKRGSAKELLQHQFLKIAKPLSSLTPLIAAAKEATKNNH
T8 sequence (O00506 whole entry): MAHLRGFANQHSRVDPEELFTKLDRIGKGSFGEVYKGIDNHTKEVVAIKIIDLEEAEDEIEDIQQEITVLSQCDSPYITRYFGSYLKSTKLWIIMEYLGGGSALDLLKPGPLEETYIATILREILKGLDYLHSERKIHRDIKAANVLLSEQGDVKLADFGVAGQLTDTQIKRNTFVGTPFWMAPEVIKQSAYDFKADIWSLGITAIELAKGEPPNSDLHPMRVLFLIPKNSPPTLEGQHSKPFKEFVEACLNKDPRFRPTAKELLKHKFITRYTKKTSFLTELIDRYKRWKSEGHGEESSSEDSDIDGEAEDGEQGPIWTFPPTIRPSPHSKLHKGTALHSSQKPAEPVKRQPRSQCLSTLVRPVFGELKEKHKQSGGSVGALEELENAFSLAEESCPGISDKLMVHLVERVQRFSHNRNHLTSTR
T30 sequence (P24723 whole entry): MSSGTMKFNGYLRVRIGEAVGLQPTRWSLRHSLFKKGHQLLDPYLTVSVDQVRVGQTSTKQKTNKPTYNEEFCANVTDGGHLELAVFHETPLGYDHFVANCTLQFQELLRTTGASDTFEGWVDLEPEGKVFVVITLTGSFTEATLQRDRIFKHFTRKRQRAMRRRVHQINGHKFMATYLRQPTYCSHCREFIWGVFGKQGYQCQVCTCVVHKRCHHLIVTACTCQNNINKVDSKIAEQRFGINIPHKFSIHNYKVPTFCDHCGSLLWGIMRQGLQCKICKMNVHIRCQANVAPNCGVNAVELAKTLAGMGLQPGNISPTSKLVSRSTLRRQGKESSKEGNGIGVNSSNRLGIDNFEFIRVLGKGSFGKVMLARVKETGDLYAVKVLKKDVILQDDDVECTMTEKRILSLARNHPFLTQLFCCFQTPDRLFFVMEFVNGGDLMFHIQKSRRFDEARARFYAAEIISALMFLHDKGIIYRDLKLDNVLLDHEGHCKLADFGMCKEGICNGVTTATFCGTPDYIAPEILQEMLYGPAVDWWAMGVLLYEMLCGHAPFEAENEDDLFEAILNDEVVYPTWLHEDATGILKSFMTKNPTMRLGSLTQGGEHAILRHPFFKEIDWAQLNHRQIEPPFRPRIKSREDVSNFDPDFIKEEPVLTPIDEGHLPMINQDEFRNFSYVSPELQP

For the compound `O=C(Nc1ccc(Oc2ncnc3[nH]ncc23)cc1)Nc1ccc(Cl)c(C(F)(F)F)c1` [Compound 1, 1-(4-(1H-pyrazolo[3,4-d]pyrimidin-4-yloxy)phenyl)-3-(4-chloro-3-(trifluoromethyl)phenyl)urea], the half-inhibitory concentration (IC50) in the assay on ERK and at PAK1 [1] was more than 10000 nM each time.
For `CC(C)(C)c1cc(NC(=O)Nc2ccc(Oc3ncnc4[nH]ncc34)c(F)c2)no1` [SKLB-677, 1-(4-(1H-pyrazolo[3,4-d]pyrimidin-4-yloxy)-3-fluorophenyl)-3-(5-tert-butylisoxazol-3-yl)urea], the remaining binding at 10 µM on TRPM6 was 89%; at NEK5 it was 9.8%; in assay [2] it was 5.2%; on NEK1, 64%; at TNIK, 5.2%; on BIKE, 89%. Further, the remaining binding at 10 µM on YSK1 is 35%; on OSR1, 36%; at ERK3, 79%; at ULK1 it was 70%; at TRKB, 0.05%; at VEGFR2, 0.1%. For the same compound, the remaining binding at 10 µM was 68% on PAK1 [3]; 90% on PRKCE; 11% at MYO3A; 2.2% in assay [4]; 38% at EGFR(S752-I759del); 82% on TESK1. Further, the remaining binding at 10 µM turned out to be 85% at PHKG1; 11% in assay [5]; 100% on TSSK1B; 100% on TAK1; 100% at ERBB2; 100% on PHKG2. Also, the remaining binding at 10 µM at CAMK2B is 77%; at MAP3K1 it was 36%; on FRK, 0%; on MYLK4, 78%; at CDK9, 5.6%; on PRKCH it was 100%. Further, the remaining binding at 10 µM on PAK7 stood at 100%; at ABL2, 13%; at AXL it was 3.8%; on TLK1 it was 75%; in assay [6] it was 11%; at ICK it was 42%. For the same compound, the remaining binding at 10 µM in [7] stood at 13%. Moreover, the equilibrium dissociation constant (Kd) on DCLK1 was more than 10000 nM; at TIE2, 99 nM. Further, in [8], the “concentration at which activation of STAT5 and Erk1/2 was efficiently inhibited” value is “higher than 1 nM”. In addition, in assay [8] (Homo sapiens, read-out: IC50, reduction in the phosphorylation level of FLT3), the IC50 was approximately 0.1 nM.

Source of the values: PMC4620497 (Scientific Reports, 2015).
